# Measurements taken from patent US11780849B2, “Imino sulfanone inhibitors of ENPP1” (Volastra Therapeutics, Inc., priority 2020, dated 2023).
# Read-outs that look alike come from different tables or passages of the source.
# Experiments:
# ENPP-1 ECD [1] = biological target: T1, ENPP-1 ECD (Homo sapiens (Human), UniProt P22413); assay: Assay 1: inhibition of ENPP1 hydrolysis of 2′,3′-cGAMP (AMP-Glo, […] enzyme)
# Experimental: Assay 1: Test compounds were plated in a 3× dilution scheme in a 384 well plate. […] AMP Detection solution (100 μL) was added to each well, the plate centrifuged and incubated for 60 min.
# ENPP-1 ECD [2] = biological target: T1, ENPP-1 ECD; assay: Assay 2: inhibition of ENPP1 hydrolysis of 2′,3′-cGAMP (AMP-Glo, […] enzyme)
# Experimental: Assay 2: Compared to the conditions in Assay 1, this assay has a larger dynamic range and ensures the system is under steady-state conditions by reducing the enzyme concentration in the assay.
# Test compounds were plated in a 3× dilution scheme in a 384 well plate. […] AMP Detection solution (10 μL) was added to each well, the plate centrifuged and incubated for 60 min.
# [3] = biological target: ENPP1 on MDA-MB-231 cells (Homo sapiens (Human), UniProt P22413); assay: Assay 3: inhibition of ENPP1 hydrolysis of AMP p-nitrophenyl ester on MDA-MB-231 cells
# Sequence of ENPP1 on MDA-MB-231 cells (P22413 whole entry): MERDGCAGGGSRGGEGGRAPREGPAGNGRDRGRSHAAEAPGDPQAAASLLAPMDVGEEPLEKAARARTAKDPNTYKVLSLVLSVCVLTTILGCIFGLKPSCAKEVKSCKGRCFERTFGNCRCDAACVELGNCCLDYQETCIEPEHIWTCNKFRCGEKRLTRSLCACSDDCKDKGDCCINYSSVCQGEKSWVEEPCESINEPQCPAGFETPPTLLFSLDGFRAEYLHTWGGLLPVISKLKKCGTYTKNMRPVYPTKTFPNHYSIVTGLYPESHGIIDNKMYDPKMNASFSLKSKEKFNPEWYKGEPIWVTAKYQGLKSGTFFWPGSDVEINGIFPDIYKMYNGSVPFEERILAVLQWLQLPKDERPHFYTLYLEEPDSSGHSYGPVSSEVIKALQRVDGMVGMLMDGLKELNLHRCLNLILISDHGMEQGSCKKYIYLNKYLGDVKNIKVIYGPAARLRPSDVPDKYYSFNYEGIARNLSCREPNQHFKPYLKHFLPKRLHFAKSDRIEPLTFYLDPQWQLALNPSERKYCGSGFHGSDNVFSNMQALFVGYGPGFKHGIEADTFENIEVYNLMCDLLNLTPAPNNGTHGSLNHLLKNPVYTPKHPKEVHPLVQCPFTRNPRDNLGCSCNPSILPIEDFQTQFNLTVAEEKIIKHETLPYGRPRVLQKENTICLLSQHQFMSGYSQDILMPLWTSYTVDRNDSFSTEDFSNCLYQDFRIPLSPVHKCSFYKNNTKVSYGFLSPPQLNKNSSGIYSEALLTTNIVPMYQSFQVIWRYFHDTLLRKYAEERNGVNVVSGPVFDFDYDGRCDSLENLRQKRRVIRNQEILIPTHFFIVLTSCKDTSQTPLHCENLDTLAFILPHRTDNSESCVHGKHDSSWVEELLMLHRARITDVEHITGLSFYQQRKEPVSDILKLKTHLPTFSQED
# [4] = read-out: Assay 1 (IC50), ENPP1 hydrolysis of 2′,3′-cGAMP, AMP-Glo
# [5] = read-out: Assay 1 (IC50), inhibition of ENPP1 hydrolysis of 2′,3′-cGAMP, no unit in Table 18 (Table 17 legend for this assay uses nM)
# [6] = read-out: Assay 2 (KI), ENPP1 hydrolysis of 2′,3′-cGAMP, AMP-Glo, […] ENPP-1, 24 μM cGAMP
# [7] = read-out: Assay 2 (KI), inhibition of ENPP1 hydrolysis of 2′,3′-cGAMP, no unit in Table 18 (Table 17 legend for this assay uses nM)
# [8] = read-out: Assay 3 (KI, app), apparent KI from IC50 via Cheng/Prusoff, pNP-AMP […], MDA-MB-231 cells, pH 7.4, 37° C., 3 h, unit inferred
# [9] = Assay 1 (IC50), inhibition of ENPP1 hydrolysis of 2′,3′-cGAMP, no unit in Table 18 (Table 17 legend for this assay uses nM)
# [10] = Assay 2 (KI), ENPP1 hydrolysis of 2′,3′-cGAMP, AMP-Glo, […] ENPP-1, 24 μM cGAMP
# [11] = Assay 2 (KI), inhibition of ENPP1 hydrolysis of 2′,3′-cGAMP, no unit in Table 18 (Table 17 legend for this assay uses nM)
# [12] = Assay 1 (IC50), ENPP1 hydrolysis of 2′,3′-cGAMP, AMP-Glo
# T1 sequence (P22413 98-925): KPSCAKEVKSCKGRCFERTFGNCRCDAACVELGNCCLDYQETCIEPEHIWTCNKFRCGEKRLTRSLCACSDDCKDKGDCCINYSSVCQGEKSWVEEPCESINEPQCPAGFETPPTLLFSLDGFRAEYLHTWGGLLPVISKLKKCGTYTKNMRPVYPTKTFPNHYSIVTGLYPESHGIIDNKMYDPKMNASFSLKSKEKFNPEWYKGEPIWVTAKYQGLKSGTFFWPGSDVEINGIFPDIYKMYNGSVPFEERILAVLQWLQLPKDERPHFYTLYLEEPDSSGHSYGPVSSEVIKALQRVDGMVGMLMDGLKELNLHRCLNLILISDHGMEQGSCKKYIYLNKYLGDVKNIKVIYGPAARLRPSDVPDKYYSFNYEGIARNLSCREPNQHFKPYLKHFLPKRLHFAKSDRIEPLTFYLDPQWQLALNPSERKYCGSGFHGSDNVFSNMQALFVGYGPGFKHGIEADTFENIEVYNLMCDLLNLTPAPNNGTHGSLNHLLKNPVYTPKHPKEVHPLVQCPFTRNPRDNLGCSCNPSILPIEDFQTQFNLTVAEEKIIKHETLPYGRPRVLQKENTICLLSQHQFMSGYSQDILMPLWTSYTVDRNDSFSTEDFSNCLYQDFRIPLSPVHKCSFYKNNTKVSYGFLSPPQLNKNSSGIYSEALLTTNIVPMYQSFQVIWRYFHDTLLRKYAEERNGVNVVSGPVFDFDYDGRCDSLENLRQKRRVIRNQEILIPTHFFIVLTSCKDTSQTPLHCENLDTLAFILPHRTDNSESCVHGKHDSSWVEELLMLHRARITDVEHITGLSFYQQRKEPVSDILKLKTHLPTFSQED
smiles,measurement,setting,value
COc1cc2ncnc(N3CCC4(CC3)CCN([S@@](C)(=N)=O)C4)c2cc1OC [Compound 54a],IC50,ENPP-1 ECD [1]; [4],< 10 nM
same,IC50,ENPP-1 ECD [1]; [5],0.34 nM
same,Ki,ENPP-1 ECD [2]; [6],< 3 nM
same,Ki,ENPP-1 ECD [2]; [7],0.0075 nM
same,Ki,[3]; [8],0.32 nM
COc1cc2ncnc(N3CCC4(CC3)CCN([S@](C)(=N)=O)C4)c2cc1OC [Compound 54b],IC50,ENPP-1 ECD [1]; [4],< 10 nM
same,IC50,ENPP-1 ECD [1]; [5],7.6 nM
same,Ki,ENPP-1 ECD [2]; [6],< 3 nM
same,Ki,ENPP-1 ECD [2]; [7],1.3 nM
same,Ki,[3]; [8],130 nM
"COc1ccc2c(N3CCC4(CC3)CCN(S(C)(=N)=O)C4)ccnc2c1 (centres unmarked) [Compound 55, 8-(7-methoxyquinolin-4-yl)-2-(S-methylsulfonimidoyl)-2,8-diazaspiro[4.5]decane]",IC50,ENPP-1 ECD [1]; [9],2 nM
same,IC50,ENPP-1 ECD [1]; [4],< 10 nM
same,Ki,ENPP-1 ECD [2]; [10],< 3 nM
same,Ki,ENPP-1 ECD [2]; [11],0.14 nM
same,Ki,[3],25 nM
COc1ccc2c(N3CCC4(CC3)CCN([S@](C)(=N)=O)C4)ccnc2c1 [Compound 55a],IC50,ENPP-1 ECD [1]; [4],< 10 nM
same,IC50,ENPP-1 ECD [1]; [5],0.76 nM
same,Ki,ENPP-1 ECD [2]; [6],< 3 nM
same,Ki,ENPP-1 ECD [2]; [7],0.09 nM
same,Ki,[3]; [8],8.7 nM
"COc1cccc2c(N3CCC(CCS(C)(=N)=O)CC3)c(C#N)cnc12 (centres unmarked) [Compound 57, 8-methoxy-4-(4-(2-(S-methylsulfonimidoyl)ethyl)piperidin-1-yl)quinoline-3-carbonitrile]",IC50,ENPP-1 ECD [1]; [12],10 to 1000 nM
same,IC50,ENPP-1 ECD [1]; [9],31 nM
same,Ki,ENPP-1 ECD [2]; [10],3 to 300 nM
same,Ki,ENPP-1 ECD [2]; [11],5.3 nM
same,Ki,[3],120 nM
"COc1ccc2c(Oc3ccc(S(=N)(=O)C4CC4)cc3)ccnc2c1 (centres unmarked) [Compound 60, cyclopropyl(imino)(4-((7-methoxyquinolin-4-yl)oxy)phenyl)-λ^6-sulfanone]",IC50,ENPP-1 ECD [1]; [9],2.8 nM
same,IC50,ENPP-1 ECD [1]; [4],< 10 nM
same,Ki,ENPP-1 ECD [2]; [10],< 3 nM
same,Ki,ENPP-1 ECD [2]; [11],0.34 nM
same,Ki,[3],23 nM
COc1ccc2c(Oc3ccc([S@@](=N)(=O)C4CC4)cc3)ccnc2c1 [Compound 60a],IC50,ENPP-1 ECD [1]; [4],< 10 nM
same,IC50,ENPP-1 ECD [1]; [5],1.3 nM
same,Ki,ENPP-1 ECD [2]; [6],< 3 nM
same,Ki,ENPP-1 ECD [2]; [7],0.099 nM
same,Ki,[3]; [8],11 nM
"COc1cccc2c(N3CCC(CCS(C)(=N)=O)CC3)ncnc12 (centres unmarked) [Compound 72, imino({2-[1-(8-methoxyquinazolin-4-yl)piperidin-4-yl]ethyl})methyl-λ^6-sulfanone]",IC50,ENPP-1 ECD [1]; [12],10 to 1000 nM
same,IC50,ENPP-1 ECD [1]; [9],120 nM
same,Ki,ENPP-1 ECD [2]; [10],3 to 300 nM
same,Ki,ENPP-1 ECD [2]; [11],18 nM
same,Ki,[3],430 nM
"COc1ccc2c(OCc3ccc(S(C)(=N)=O)cc3)ccnc2c1 (centres unmarked) [Compound 75, imino(4-(((7-methoxyquinolin-4-yl)oxy)methyl)phenyl)(methyl)-λ^6-sulfanone]",IC50,ENPP-1 ECD [1]; [9],4.4 nM
same,IC50,ENPP-1 ECD [1]; [4],< 10 nM
same,Ki,ENPP-1 ECD [2]; [10],< 3 nM
same,Ki,ENPP-1 ECD [2]; [11],0.49 nM
same,Ki,[3],31 nM
COc1ccc2c(OCc3ccc([S@@](C)(=N)=O)cc3)ccnc2c1 [Compound 75a],IC50,ENPP-1 ECD [1]; [4],< 10 nM
same,IC50,ENPP-1 ECD [1]; [5],3 nM
same,Ki,ENPP-1 ECD [2]; [6],< 3 nM
same,Ki,ENPP-1 ECD [2]; [7],0.38 nM
same,Ki,[3]; [8],22 nM
"COc1ccc2c(Oc3ccc(S(C)(=N)=O)cc3)ccnc2c1 (centres unmarked) [Compound 80, imino(4-((7-methoxyquinolin-4-yl)oxy)phenyl)(methyl)-λ^6-sulfanone]",IC50,ENPP-1 ECD [1]; [9],6.2 nM
same,IC50,"ENPP-1 ECD [1]; IC50 in Assay 1, […] ENPP-1 ECD, 24 μM 2,3-cGAMP, pH 8.0",1.4 nM
same,IC50,ENPP-1 ECD [1]; [4],< 10 nM
same,Ki,ENPP-1 ECD [2]; [10],< 3 nM
same,Ki,ENPP-1 ECD [2]; [11],1.1 nM
same,Ki,[3],29 nM
COc1ccc2c(Oc3ccc([S@@](C)(=N)=O)cc3)ccnc2c1 [Compound 80a],IC50,ENPP-1 ECD [1]; [4],< 10 nM
same,IC50,ENPP-1 ECD [1]; [5],2.2 nM
same,Ki,ENPP-1 ECD [2]; [6],< 3 nM
same,Ki,ENPP-1 ECD [2]; [7],0.26 nM
same,Ki,[3]; [8],13 nM
"COc1cc2ncnc(N3CCC(CNS(C)(=N)=O)CC3)c2cc1OC (centres unmarked) [Compound 94, N-((1-(6,7-dimethoxyquinazolin-4-yl)piperidin-4-yl)methyl)methanesulfonimidamide]",IC50,ENPP-1 ECD [1]; [9],6.6 nM
same,IC50,ENPP-1 ECD [1]; [4],< 10 nM
same,Ki,ENPP-1 ECD [2]; [10],< 3 nM
same,Ki,ENPP-1 ECD [2]; [11],1.3 nM
same,Ki,[3],83 nM
"COc1ccc2c(Oc3ccc(S(C)(=N)=O)nc3)ccnc2c1 (centres unmarked) [Compound 101, imino({5-[(7-methoxyquinolin-4-yl)oxy]pyridin-2-yl})methyl-λ^6-sulfanone]",IC50,ENPP-1 ECD [1]; [12],10 to 1000 nM
same,IC50,ENPP-1 ECD [1]; [9],40 nM
same,Ki,ENPP-1 ECD [2]; [10],3 to 300 nM
same,Ki,ENPP-1 ECD [2]; [11],5.4 nM
same,Ki,[3],300 nM
"CCS(=N)(=O)c1ccc(Oc2ccnc3cc(OC)ccc23)cc1 (centres unmarked) [Compound 103, ethyl(imino)(4-((7-methoxyquinolin-4-yl)oxy)phenyl)-λ^6-sulfanone]",IC50,ENPP-1 ECD [1]; [9],9 nM
same,IC50,ENPP-1 ECD [1]; [4],< 10 nM
same,Ki,ENPP-1 ECD [2]; [10],< 3 nM
same,Ki,ENPP-1 ECD [2]; [11],1.3 nM
same,Ki,[3],49 nM
CC[S@](=N)(=O)c1ccc(Oc2ccnc3cc(OC)ccc23)cc1 [Compound 103b],IC50,ENPP-1 ECD [1]; [4],< 10 nM
same,IC50,ENPP-1 ECD [1]; [5],2.2 nM
same,Ki,ENPP-1 ECD [2]; [6],< 3 nM
same,Ki,ENPP-1 ECD [2]; [7],0.31 nM
same,Ki,[3]; [8],30 nM
"COc1cc2nccc(Oc3ccc(S(C)(=N)=O)cc3)c2cc1F (centres unmarked) [Compound 114, {4-[(6-fluoro-7-methoxyquinolin-4-yl)oxy]phenyl}(imino)methyl-λ^6-sulfanone]",IC50,ENPP-1 ECD [1]; [9],2.8 nM
same,Ki,ENPP-1 ECD [2]; [10],< 3 nM
same,Ki,ENPP-1 ECD [2]; [11],0.27 nM
same,Ki,[3],19 nM
COc1cc2nccc(Oc3ccc([S@](C)(=N)=O)cc3)c2cc1F [Compound 114a],IC50,ENPP-1 ECD [1]; [4],< 10 nM
same,IC50,ENPP-1 ECD [1]; [5],0.94 nM
same,Ki,ENPP-1 ECD [2]; [6],< 3 nM
same,Ki,ENPP-1 ECD [2]; [7],0.088 nM
same,Ki,[3]; [8],6.3 nM
"COc1cc2nccc(Oc3ccc(S(=N)(=O)C4CC4)cc3)c2cc1F (centres unmarked) [Compound 120, [cyclopropyl({4-[(6-fluoro-7-methoxyquinolin-4-yl)oxy]phenyl})imino-λ^6-sulfanyl]one]",IC50,ENPP-1 ECD [1]; [9],1.1 nM
same,IC50,ENPP-1 ECD [1]; [4],< 10 nM
same,Ki,ENPP-1 ECD [2]; [10],< 3 nM
same,Ki,ENPP-1 ECD [2]; [11],0.12 nM
same,Ki,[3],6.2 nM
COc1cc2nccc(Oc3ccc([S@@](=N)(=O)C4CC4)cc3)c2cc1F [Compound 120a],IC50,ENPP-1 ECD [1]; [4],< 10 nM
same,IC50,ENPP-1 ECD [1]; [5],0.46 nM
same,Ki,ENPP-1 ECD [2]; [6],< 3 nM
same,Ki,ENPP-1 ECD [2]; [7],0.05 nM
same,Ki,[3]; [8],6.5 nM
"COc1cc2nncc(Oc3ccc(S(C)(=N)=O)cc3)c2cc1OC (centres unmarked) [Compound 127, {4-[(6,7-dimethoxycinnolin-4-yl)oxy]phenyl}(imino)methyl-λ^6-sulfanone]",IC50,ENPP-1 ECD [1]; [12],10 to 1000 nM
same,IC50,ENPP-1 ECD [1]; [9],30 nM
same,Ki,ENPP-1 ECD [2]; [10],3 to 300 nM
same,Ki,ENPP-1 ECD [2]; [11],5 nM
same,Ki,[3],380 nM
"COc1ccc2c(OCc3cccc(S(C)(=N)=O)c3)ccnc2c1 (centres unmarked) [Compound 133, imino(3-{[(7-methoxyquinolin-4-yl)oxy]methyl}phenyl)methyl-λ^6-sulfanone]",IC50,ENPP-1 ECD [1]; [9],1.4 nM
same,Ki,ENPP-1 ECD [2]; [10],< 3 nM
same,Ki,ENPP-1 ECD [2]; [11],0.12 nM
same,Ki,[3],13 nM
COc1ccc2c(OCc3cccc([S@@](C)(=N)=O)c3)ccnc2c1 [Compound 133a],IC50,ENPP-1 ECD [1]; [4],< 10 nM
same,IC50,ENPP-1 ECD [1]; [5],0.5 nM
same,Ki,ENPP-1 ECD [2]; [6],< 3 nM
same,Ki,ENPP-1 ECD [2]; [7],0.055 nM
same,Ki,[3]; [8],4.1 nM
"COc1ccc2c(OCc3ccc(S(C)(=N)=O)cc3F)ccnc2c1 (centres unmarked) [Compound 135, (3-fluoro-4-{[(7-methoxyquinolin-4-yl)oxy]methyl}phenyl)(imino)methyl-λ^6-sulfanone]",IC50,ENPP-1 ECD [1]; [9],7.8 nM
same,Ki,ENPP-1 ECD [2]; [10],< 3 nM
same,Ki,ENPP-1 ECD [2]; [11],1.4 nM
same,Ki,[3],110 nM
COc1cc2nccc(OCc3ccc(S(C)(=N)=O)cc3)c2cc1F (centres unmarked) [Compound 136],IC50,ENPP-1 ECD [1]; [9],2 nM
same,IC50,ENPP-1 ECD [1]; [4],< 10 nM
same,Ki,ENPP-1 ECD [2]; [10],< 3 nM
same,Ki,ENPP-1 ECD [2]; [11],0.32 nM
same,Ki,[3],29 nM
"COc1cc2nccc(OCc3ccc(S(C)(=N)=O)cc3)c2cc1OC (centres unmarked) [Compound 138, (4-{[(6,7-dimethoxyquinolin-4-yl)oxy]methyl}phenyl)(imino)methyl-λ^6-sulfanone]",IC50,ENPP-1 ECD [1]; [12],10 to 1000 nM
same,IC50,ENPP-1 ECD [1]; [9],37 nM
same,Ki,ENPP-1 ECD [2]; [10],3 to 300 nM
same,Ki,ENPP-1 ECD [2]; [11],4.6 nM
same,Ki,[3],140 nM
